Experimental data as given in the supplement of paper PMC6045584.
± gives the standard deviation of the averaged measurements.

Key:
[1] = compound: COc1ccc(-c2cc3c(C)nc(N)nc3n([C@H]3CC[C@H](OCCO)CC3)c2=O)cn1; assay: surviving fraction relative to DMSO-only wells; higher = less growth inhibition; conditions: exposure time: 5 days
How it was run: (§1)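 Surviving fraction was calculated by normalising CellTiter-Glo luminescence to the median of DMSO-only wells. Tumour cell lines in log phase were seeded in 384-well plates at 250–500 cells per well, and 24 hours later were exposed continuously for five days to inhibitors at 0.5, 1, 5, 10, 50, 100, 500 and 1000 nM.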

[2] = compound: C[C@H](CN(C)C)Oc1nc(Nc2cc3cccc(Cl)c3cn2)cnc1C#N; assay: as above; conditions: exposure time: 5 days
How it was run: as §1

Row | Test System | surviving fraction ([1]; 0.5 nM) | surviving fraction ([1]; 1 nM) | surviving fraction ([1]; 5 nM) | surviving fraction ([1]; 10 nM) | surviving fraction ([1]; 50 nM) | surviving fraction ([1]; 100 nM) | surviving fraction ([1]; 500 nM) | surviving fraction ([1]; 1000 nM) | surviving fraction ([2]; 0.5 nM) | surviving fraction ([2]; 1 nM) | surviving fraction ([2]; 5 nM) | surviving fraction ([2]; 10 nM) | surviving fraction ([2]; 50 nM) | surviving fraction ([2]; 100 nM) | surviving fraction ([2]; 500 nM) | surviving fraction ([2]; 1000 nM)
1 | SCC47 HEADNECK | 0.983 ± 0.021 | 0.992 ± 0.084 | 0.992 ± 0.027 | 1.01 ± 0.015 | 0.903 ± 0.032 | 0.886 ± 0.019 | 0.371 ± 0.013 | 0.225 ± 0.0095 | 1.06 ± 0.052 | 1.06 ± 0.091 | 1.06 ± 0.065 | 1.11 ± 0.054 | 1.14 ± 0.059 | 1.12 ± 0.1 | 0.671 ± 0.049 | 0.925 ± 0.0085
2 | LM7 BONE | 0.996 ± 0.022 | 0.896 ± 0.031 | 0.947 ± 0.019 | 0.906 ± 0.057 | 0.691 ± 0.023 | 0.578 ± 0.022 | 0.205 ± 0.012 | 0.0677 ± 0.005 | 0.96 ± 0.013 | 0.916 ± 0.015 | 0.945 ± 0.068 | 1.02 ± 0.054 | 1.06 ± 0.086 | 0.99 ± 0.099 | 0.835 ± 0.11 | 0.528 ± 0.077
3 | BT549 BREAST | 1.09 ± 0.18 | 1.02 ± 0.12 | 0.952 ± 0.095 | 0.939 ± 0.14 | 0.569 ± 0.085 | 0.381 ± 0.035 | 0.12 ± 0.013 | 0.0733 ± 0.0021 | 1.12 ± 0.055 | 1.14 ± 0.12 | 1.05 ± 0.1 | 1.1 ± 0.044 | 1.1 ± 0.076 | 0.896 ± 0.095 | 0.141 ± 0.024 | 0.0517 ± 0.011
4 | CME SYNOVIAL | 1.01 ± 0.027 | 1.09 ± 0.2 | 1.04 ± 0.042 | 1.12 ± 0.045 | 0.743 ± 0.083 | 0.681 ± 0.051 | 0.252 ± 0.022 | 0.28 ± 0.019 | 1.21 ± 0.15 | 1.3 ± 0.16 | 1.28 ± 0.11 | 1.36 ± 0.18 | 1.32 ± 0.11 | 1.47 ± 0.17 | 1.14 ± 0.059 | 1.02 ± 0.15
5 | 93VU HEADNECK | 0.94 ± 0.015 | 0.995 ± 0.14 | 0.923 ± 0.075 | 0.979 ± 0.044 | 0.582 ± 0.14 | 0.351 ± 0.068 | 0.0697 ± 0.0051 | 0.047 ± 0.0046 | 0.995 ± 0.04 | 1.04 ± 0.079 | 1.04 ± 0.06 | 1.09 ± 0.039 | 1.03 ± 0.11 | 1.14 ± 0.1 | 0.865 ± 0.066 | 0.976 ± 0.09
6 | NY BONE | 0.925 ± 0.027 | 0.916 ± 0.038 | 0.909 ± 0.022 | 0.84 ± 0.047 | 0.668 ± 0.029 | 0.602 ± 0.028 | 0.369 ± 0.019 | 0.317 ± 0.0068 | 0.9707 ± 0.0081 | 0.948 ± 0.042 | 1.01 ± 0.026 | 1.01 ± 0.015 | 1 ± 0.029 | 0.854 ± 0.06 | 0.119 ± 0.0045 | 0.0907 ± 0.0051
7 | SUM149 BREAST | 1.02 ± 0.042 | 1.1 ± 0.1 | 0.963 ± 0.067 | 0.9127 ± 0.0085 | 0.697 ± 0.036 | 0.474 ± 0.03 | 0.161 ± 0.0021 | 0.0763 ± 0.0038 | 1.04 ± 0.091 | 1.02 ± 0.083 | 0.988 ± 0.086 | 1.07 ± 0.017 | 0.903 ± 0.07 | 0.836 ± 0.024 | 0.192 ± 0.0025 | 0.0843 ± 0.011
8 | SCC90 HEADNECK | 0.913 ± 0.076 | 0.916 ± 0.037 | 0.892 ± 0.034 | 0.904 ± 0.15 | 0.674 ± 0.074 | 0.555 ± 0.077 | 0.194 ± 0.025 | 0.222 ± 0.054 | 1.05 ± 0.08 | 1.02 ± 0.082 | 1.02 ± 0.09 | 0.936 ± 0.1 | 0.991 ± 0.038 | 0.911 ± 0.034 | 0.189 ± 0.03 | 0.215 ± 0.021
9 | S68 BREAST | 0.953 ± 0.24 | 0.88 ± 0.11 | 0.993 ± 0.2 | 0.845 ± 0.18 | 0.334 ± 0.082 | 0.16 ± 0.02 | 0.0503 ± 0.0051 | 0.034 ± 0.001 | 0.922 ± 0.12 | 1.07 ± 0.076 | 1.15 ± 0.062 | 0.966 ± 0.065 | 0.874 ± 0.14 | 0.652 ± 0.052 | 0.153 ± 0.0038 | 0.114 ± 0.0055
10 | SJSA1 BONE | 1.04 ± 0.035 | 0.976 ± 0.023 | 0.989 ± 0.058 | 0.941 ± 0.027 | 0.743 ± 0.059 | 0.671 ± 0.028 | 0.2 ± 0.011 | 0.116 ± 0.0015 | 1.49 ± 0.044 | 1.65 ± 0.083 | 1.6 ± 0.17 | 1.57 ± 0.02 | 1.63 ± 0.14 | 1.74 ± 0.039 | 1.63 ± 0.2 | 1.69 ± 0.082
11 | MCF7 BREAST | 0.875 ± 0.029 | 0.851 ± 0.016 | 0.807 ± 0.027 | 0.764 ± 0.058 | 0.527 ± 0.0077 | 0.358 ± 0.0078 | 0.185 ± 0.0036 | 0.181 ± 0.0076 | 0.896 ± 0.012 | 0.87 ± 0.042 | 0.873 ± 0.069 | 0.881 ± 0.063 | 0.904 ± 0.026 | 0.813 ± 0.046 | 0.751 ± 0.016 | 0.697 ± 0.023
12 | SUM44 BREAST | 0.914 ± 0.026 | 0.974 ± 0.044 | 1.01 ± 0.027 | 0.957 ± 0.04 | 0.864 ± 0.043 | 0.747 ± 0.017 | 0.225 ± 0.028 | 0.151 ± 0.0051 | 1.14 ± 0.37 | 1.16 ± 0.3 | 1.24 ± 0.33 | 1.29 ± 0.47 | 1.23 ± 0.4 | 0.918 ± 0.25 | 0.284 ± 0.056 | 0.268 ± 0.066
13 | SIHA CERVIX | 1.01 ± 0.032 | 1.02 ± 0.07 | 0.974 ± 0.062 | 0.93 ± 0.063 | 0.656 ± 0.025 | 0.536 ± 0.024 | 0.232 ± 0.0035 | 0.161 ± 0.011 | 0.955 ± 0.041 | 0.981 ± 0.033 | 1.06 ± 0.037 | 1.05 ± 0.061 | 1.16 ± 0.014 | 1.11 ± 0.1 | 0.95 ± 0.092 | 1 ± 0.033
14 | KPD BONE | 0.973 ± 0.033 | 0.95 ± 0.056 | 0.908 ± 0.032 | 0.852 ± 0.032 | 0.486 ± 0.028 | 0.313 ± 0.019 | 0.0613 ± 0.0067 | 0.038 ± 0.0046 | 1.04 ± 0.068 | 0.982 ± 0.083 | 1.03 ± 0.1 | 1.05 ± 0.11 | 1.06 ± 0.054 | 0.979 ± 0.025 | 0.4 ± 0.025 | 0.224 ± 0.028
15 | HUO3N1 BONE | 0.986 ± 0.036 | 0.981 ± 0.039 | 0.924 ± 0.061 | 0.855 ± 0.028 | 0.614 ± 0.013 | 0.494 ± 0.026 | 0.242 ± 0.012 | 0.188 ± 0.003 | 1.11 ± 0.059 | 1.05 ± 0.032 | 1.07 ± 0.023 | 1.07 ± 0.072 | 1.13 ± 0.071 | 0.982 ± 0.031 | 0.7257 ± 0.0065 | 0.486 ± 0.025
16 | YAMATO SYNOVIAL | 1.15 ± 0.087 | 1.09 ± 0.066 | 1.01 ± 0.073 | 0.952 ± 0.057 | 0.469 ± 0.062 | 0.355 ± 0.0076 | 0.189 ± 0.014 | 0.272 ± 0.012 | 1.12 ± 0.038 | 1.24 ± 0.086 | 1.17 ± 0.05 | 1.2 ± 0.13 | 1.18 ± 0.067 | 1.18 ± 0.037 | 0.806 ± 0.052 | 0.622 ± 0.074
17 | ASKA SYNOVIAL | 0.923 ± 0.037 | 0.896 ± 0.064 | 0.878 ± 0.076 | 0.776 ± 0.054 | 0.462 ± 0.019 | 0.366 ± 0.025 | 0.187 ± 0.011 | 0.229 ± 0.026 | 1.05 ± 0.055 | 1.13 ± 0.083 | 1.11 ± 0.087 | 1.06 ± 0.082 | 0.994 ± 0.061 | 0.852 ± 0.041 | 0.432 ± 0.032 | 0.438 ± 0.0075
18 | MDAMB436 BREAST | 0.881 ± 0.036 | 0.856 ± 0.055 | 0.8 ± 0.031 | 0.75 ± 0.051 | 0.582 ± 0.027 | 0.432 ± 0.023 | 0.265 ± 0.016 | 0.2398 ± 0.0015 | 0.927 ± 0.072 | 0.927 ± 0.15 | 0.963 ± 0.14 | 0.959 ± 0.13 | 0.953 ± 0.11 | 0.808 ± 0.14 | 0.641 ± 0.1 | 0.451 ± 0.077
19 | A549 LUNG | 0.958 ± 0.049 | 0.939 ± 0.044 | 0.927 ± 0.026 | 0.936 ± 0.035 | 1.02 ± 0.032 | 0.886 ± 0.016 | 0.325 ± 0.024 | 0.158 ± 0.0036 | 1.04 ± 0.03 | 1.02 ± 0.02 | 1.02 ± 0.024 | 0.994 ± 0.018 | 1.09 ± 0.039 | 1.06 ± 0.039 | 0.967 ± 0.02 | 0.601 ± 0.027
20 | PCI30 HEADNECK | 0.935 ± 0.034 | 0.947 ± 0.079 | 0.902 ± 0.023 | 0.963 ± 0.1 | 0.716 ± 0.028 | 0.495 ± 0.033 | 0.181 ± 0.004 | 0.151 ± 0.0076 | 0.99 ± 0.044 | 0.999 ± 0.019 | 1.06 ± 0.059 | 1.06 ± 0.11 | 0.9137 ± 0.0042 | 0.827 ± 0.079 | 0.337 ± 0.021 | 0.322 ± 0.017
